Data as given in PubChem BioAssay AID2060605 (Molecular Pharmacology Branch, DTP, NCI, 2025).

System: 947758-054-R-J2-PDC spheroid growth, percent test/control
Test: Anticancer human tumor 947758-054-R-J2-PDC patient-derived colon adenocarcinoma cell line growth inhibition [CLK]
Conditions: spheroids with HUVEC and MSC; for IC50: curve of first compound; for viability, T/C: stronger effect = lower value
Procedure, shortened: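 Multi-cell-type spheroids combined patient-derived tumor cells with HUVEC endothelial cells and human mesenchymal stem cells. Paired agents were dosed in half-log steps down from about clinical Cmax, or from 10 microM where Cmax was unknown.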
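Further: spheroids exposed to compounds for one week before readout.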
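Wherever viability, T/C is given: 100% = DMSO vehicle control wells.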

CC1(C)CCC(CN2CCN(c3ccc(C(=O)NS(=O)(=O)c4ccc(NCC5CCOCC5)c([N+](=O)[O-])c4)c(Oc4cnc5[nH]ccc5c4)c3)CC2)=C(c2ccc(Cl)cc2)C1 + CNC(=O)c1ccc(Nc2nc(OC3CCCC3)c3c(-c4ccc5nc(C)oc5c4)c[nH]c3n2)c(OC)c1
IC50 (second compound 0.0316 µM): 2.89 µM | IC50 (second compound 0.1 µM): 3.2 µM | IC50 (second compound 0.316 µM): 2.44 µM | IC50 (second compound 1 µM): 2.3 µM | IC50 (second compound 3.16 µM): 0.751 µM | IC50 (second compound 10 µM): 0.0352 µM | viability, T/C (second compound 0.0316 µM, first compound 0.0316 µM): 105% | viability, T/C (second compound 0.0316 µM, first compound 0.1 µM): 80.1% | viability, T/C (second compound 0.0316 µM, first compound 0.316 µM): 93.6% | viability, T/C (second compound 0.0316 µM, first compound 1 µM): 94.4% | viability, T/C (second compound 0.0316 µM, first compound 3.16 µM): 46.3% | viability, T/C (second compound 0.0316 µM, first compound 10 µM): 1.33% | viability, T/C (second compound 0.1 µM, first compound 0.0316 µM): 104% | viability, T/C (second compound 0.1 µM, first compound 0.1 µM): 113% | viability, T/C (second compound 0.1 µM, first compound 0.316 µM): 82.1% | viability, T/C (second compound 0.1 µM, first compound 1 µM): 94% | viability, T/C (second compound 0.1 µM, first compound 3.16 µM): 47.8% | viability, T/C (second compound 0.1 µM, first compound 10 µM): 0.8% | viability, T/C (second compound 0.316 µM, first compound 0.0316 µM): 105% | viability, T/C (second compound 0.316 µM, first compound 0.1 µM): 85.2% | viability, T/C (second compound 0.316 µM, first compound 0.316 µM): 70.7% | viability, T/C (second compound 0.316 µM, first compound 1 µM): 76.8% | viability, T/C (second compound 0.316 µM, first compound 3.16 µM): 46.9% | viability, T/C (second compound 0.316 µM, first compound 10 µM): 1.58% | viability, T/C (second compound 1 µM, first compound 0.0316 µM): 64.8% | viability, T/C (second compound 1 µM, first compound 0.1 µM): 56.7% | viability, T/C (second compound 1 µM, first compound 0.316 µM): 55.8% | viability, T/C (second compound 1 µM, first compound 1 µM): 68.5% | viability, T/C (second compound 1 µM, first compound 3.16 µM): 45.8% | viability, T/C (second compound 1 µM, first compound 10 µM): 0.6% | viability, T/C (second compound 3.16 µM, first compound 0.0316 µM): 59.1% | viability, T/C (second compound 3.16 µM, first compound 0.1 µM): 33.4% | viability, T/C (second compound 3.16 µM, first compound 0.316 µM): 63.3% | viability, T/C (second compound 3.16 µM, first compound 1 µM): 48.4% | viability, T/C (second compound 3.16 µM, first compound 3.16 µM): 26.5% | viability, T/C (second compound 3.16 µM, first compound 10 µM): 2.21% | viability, T/C (second compound 10 µM, first compound 0.0316 µM): 55% | viability, T/C (second compound 10 µM, first compound 0.1 µM): 42.5% | viability, T/C (second compound 10 µM, first compound 0.316 µM): 40.2% | viability, T/C (second compound 10 µM, first compound 1 µM): 42.3% | viability, T/C (second compound 10 µM, first compound 3.16 µM): 16.3% | viability, T/C (second compound 10 µM, first compound 10 µM): 2.68%
